Source: patent US10172917B2, “Targeted oesophageal administration of ZN-α2-glycoproteins (ZAG), methods and formulations thereof” (ASTON UNIVERSITY, priority 2012, dated 2019)
“Also recorded” adds a separate entry of the source.

Experiments:
[1] = system: gastrocnemius muscle; test: Glucose uptake ex vivo into isolated muscle of treated ob/ob mice; type: in vivo, mouse; conditions: ob/ob mice treated 8 days; presence of insulin
[2] = system: murine ZAG; test: Western blotting of murine ZAG in serum and WAT of ob/ob mice; type: in vivo, mouse; conditions: ob/ob mice, oral ZAG + propanolol 40 mgkg^−1
Procedure: Tissues were thawed, washed in PBS and lysed in Phosphosafe™ Extraction reagent for 5 min at room temperature, followed by sonication at 4° C. Cytosolic protein (5-20 ug) formed by centrifugation at 18,000 g for 5 min at 4° C., was resolved on 12% SDS PAGE by electrophoresis at 180V for about 1 h. To determine ZAG in serum 30 μl samples containing 20 μg total protein were electrophoresed as above. Protein was transferred to 0.45 μm nitrocellulose membranes, which had been blocked with 5% (w/v) non-fat dried milk (Marvel) in Tris-buffered saline, pH 7.5, at 4° C. overnight. Membranes were washed for 15 min in 0.1% Tween 20 buffered saline prior to adding the primary antibodies. Both primary and secondary antibodies were used at a dilution of 1:1000. Incubation was for 1 h at room temperature, and development was by ECL. Blots were scanned by a densitometer to quantify differences.

[3] = system: white and brown adipocytes; test: Glucose uptake ex vivo into white and brown adipocytes of treated ob/ob mice; type: in vivo, mouse; conditions: ob/ob mice treated 8 days; absence and presence of insulin (10 nM)
Procedure: Single cell suspensions of white and brown adipocytes were obtained by incubation of minced epididymal subcutaneous and visceral WAT and BAT for 2 and 2.5 h, respectively, with Krebs-Ringer bicarbonate (KRBB) containing 1.5 mgml^−1 collagenase and 4% BSA under 95% oxygen-5% CO2 at 37° C. Adipocytes were washed twice in 1 ml KRBB, pH7.2, and then incubated for 10 min at room temperature in 0.5 ml KRBB, containing 18.5 MBq 2-[1-^14C] deoxy-D-glucose (2-DG), together with non-radioactive 2-DG, to give a final concentration of 0.1 mM, in the absence or presence of insulin (10 nM). Uptake was terminated by addition of 1 ml ice-cold KRBB without glucose. Adipocytes were washed three times with 1 ml KRBB and lysed by the addition of 0.5 ml 1M NaOH. The uptake of 2-[1-^14C] DG was determined by liquid scintillation counting.

[4] = system: ob/ob mice; test: Oral ZAG in drinking water to ob/ob mice: body weight, rectal temperature, urinary glucose excretion; type: in vivo, mouse
Procedure: Obese (ob/ob) mice (average weight 65 g) were bred in a colony, and were kept in an air conditioned room at 22+2° C. with ad libitum feeding of a rat and mouse breeding diet (Special Diet Services, Witham, UK) and tap water. […] Animals were grouped (n=5) to receive either ZAG/PBS (50 μg day^−1), or PBS in their drinking water, the experiment was repeated three times after a power analysis was performed. […] The ZAG was replaced every 48 h. […] The dose of ZAG was chosen to be the same as that previously administered i.v. (1), so that a direct comparison could be made, between the two routes. Body weight, food and water intake, urinary glucose excretion, and body temperature, determined by the use of a rectal thermometer (RS Components, Northants, UK), were measured daily. A glucose tolerance test was performed on day 3. Animals were fasted for 12 h, followed by oral administration of glucose (1 gkg^−1 in a volume of 100 μl by gavage). Blood samples were removed from the tail vein at 15, 30, 60 and 120 min and used for the measurement of glucose. Urinary glucose was measured by collecting 0.5 ml urine and testing glucose concentration using a Boots glucose monitor. After 8 days of treatment the animals were terminated by cervical dislocation, tissues were removed and rapidly frozen in liquid nitrogen, and maintained at −80° C. Future work would be to repeat this work in diet-induced animals as alternative to a model with gene alteration, although previous studies have shown the ob/ob mouse to be a good indicator of potential human treatments. Animal studies were conducted under Home Office Licence according to the UKCCCR Guidelines for the care and use of laboratory animals.

[5] = system: ob/ob mice; test: Oral glucose tolerance test in ob/ob mice after 3 days of oral ZAG; type: in vivo, mouse; conditions: oral ZAG + propanolol 40 mgkg^−1, day 3
Procedure: Animals were grouped (n=5) to receive either ZAG/PBS (50 μg day^−1), or PBS in their drinking water, the experiment was repeated three times after a power analysis was performed. […] The ZAG was replaced every 48 h. One group of mice receiving ZAG were also administered propanolol (40 mgkg^−1, p.o.) daily. The dose of ZAG was chosen to be the same as that previously administered i.v. (1), so that a direct comparison could be made, between the two routes. Body weight, food and water intake, urinary glucose excretion, and body temperature, determined by the use of a rectal thermometer (RS Components, Northants, UK), were measured daily. A glucose tolerance test was performed on day 3. Animals were fasted for 12 h, followed by oral administration of glucose (1 gkg^−1 in a volume of 100 μl by gavage). Blood samples were removed from the tail vein at 15, 30, 60 and 120 min and used for the measurement of glucose. Urinary glucose was measured by collecting 0.5 ml urine and testing glucose concentration using a Boots glucose monitor. After 8 days of treatment the animals were terminated by cervical dislocation, tissues were removed and rapidly frozen in liquid nitrogen, and maintained at −80° C. […] Animal studies were conducted under Home Office Licence according to the UKCCCR Guidelines for the care and use of laboratory animals.

[6] = system: ob/ob mice; test: Serum metabolite and insulin levels in ob/ob mice after ZAG administration; type: in vivo, mouse; conditions: ob/ob mice, oral ZAG + propanolol
Excerpt: FCS (foetal calf serum) was from Biosera (Sussex, UK), while DMEM (Dulbecco's modified Eagles Medium) was from PAA (Somerset, UK) and Freestyle medium was purchased from Invitrogen (Paisley, UK). Hybond A nitrocellulose membranes and peroxidise—conjugated rabbit anti-mouse antibody were from GE Healthcare (Bucks, UK), while enhanced chemiluminescene (ECL) development kits were purchased from Thermo Scientific (Northumberland, UK). Mouse monoclonal antibodies to full-length human and mouse ZAG were from Santa Cruz Biotechnology (Santa Cruz, Calif. A mouse insulin ELISA kit was purchased from DRG (Marburg, Germany) and glucose measurements in both urine and plasma were made using a Boots (Nottingham, UK) glucose kit. L-[U-^14C] tyrosine (sp.act 16.7 GBqmmol^−1) was purchased from Perkin Elmer Ltd, (Cambridge, UK), while 2-[1-^14C] deoxy-D-glucose (sp.act 1.85 GBqmmol^−1) was from American Radiolabeled Chemicals (Cardiff, UK).
Obese (ob/ob) mice (average weight 65 g) were bred in a colony, and were kept in an air conditioned room at 22+2° C. with ad libitum feeding of a rat and mouse breeding diet (Special Diet Services, Witham, UK) and tap water. […] Animals were grouped (n=5) to receive either ZAG/PBS (50 μg day^−1), or PBS in their drinking water, the experiment was repeated three times after a power analysis was performed. […] The ZAG was replaced every 48 h. One group of mice receiving ZAG were also administered propanolol (40 mgkg^−1, p.o.) daily. The dose of ZAG was chosen to be the same as that previously administered i.v. (1), so that a direct comparison could be made, between the two routes. Body weight, food and water intake, urinary glucose excretion, and body temperature, determined by the use of a rectal thermometer (RS Components, Northants, UK), were measured daily. A glucose tolerance test was performed on day 3. Animals were fasted for 12 h, followed by oral administration of glucose (1 gkg^−1 in a volume of 100 μl by gavage). Blood samples were removed from the tail vein at 15, 30, 60 and 120 min and used for the measurement of glucose. Urinary glucose was measured by collecting 0.5 ml urine and testing glucose concentration using a Boots glucose monitor. After 8 days of treatment the animals were terminated by cervical dislocation, tissues were removed and rapidly frozen in liquid nitrogen, and maintained at −80° C. Future work would be to repeat this work in diet-induced animals as alternative to a model with gene alteration, although previous studies have shown the ob/ob mouse to be a good indicator of potential human treatments. Animal studies were conducted under Home Office Licence according to the UKCCCR Guidelines for the care and use of laboratory animals.

[7] = system: 3T3 L1 adipocytes; conditions: cited from earlier work
[8] = oral ZAG + propanolol 40 mgkg^−1

Row | SMILES | effect of propanolol on ZAG-induced glucose uptake ex vivo into gastrocnemius muscle [1] | murine ZAG in the serum of animals given ZAG and co-administered propanolol [2] | effect of propanolol on ZAG-induced glucose uptake into BAT [3] | effect of propanolol on ZAG-induced stimulation of glucose uptake ex vivo into epididymal, subcutaneous and visceral adipocytes [3] | effect of propanolol on weight gain of mice administered PBS ([4]; PBS + propanolol) | effect of propanolol on ZAG-induced weight loss ([4]; oral ZAG 50 μg daily + propanolol 40 mg/kg po daily) | effect of propanolol on ZAG-induced weight loss ([4]; oral ZAG + propanolol 20 mgkg^−1) | effect of propanolol on ZAG induced increase in rectal temperature [4, 8] | effect of propanolol on ZAG induced reduction in urinary excretion of glucose [4, 8] | effect of propanolol on ZAG-induced increase in insulin sensitivity [5] | effect of propanolol on ZAG-reduced peak blood glucose concentration / improvement in glucose disposal in glucose tolerance test [5] | effect of propanolol on decrease in serum glucose after ZAG administration [6] | effect of propanolol on decrease in serum insulin levels after ZAG administration [6] | levels of ZAG mRNA [7]
1 | CC(C)NC[C@H](O)COc1cccc2ccccc12 (racemic) [propanolol] | attenuated | no increase; also recorded: attenuated | attenuated | attenuated | no effect | blocked; also recorded: attenuated | did not prevent the weight loss | completely attenuated | completely attenuated | blocked; also recorded: attenuated | blocked; also recorded: attenuated | completely attenuated | completely attenuated | –
2 | C[C@H](Cc1ccc(OCC(=O)O)cc1)NC[C@H](O)c1cccc(Cl)c1 [BRL37344] | – | – | – | – | – | – | – | – | – | – | – | – | – | increase
